Laboratory results published in patent US8431591B2, “R(−)-2-methoxy-11-hydroxyaporphine and derivatives thereof” (The McLean Hospital Corporation, priority 2007, dated 2013).
Where two headings read alike, the source gives them in different places.

Legend:
D2 receptor = settings: Gao et al., J. Med. Chem. 33:1800 (1990); cited from earlier work
dopamine D1 receptor = dopamine D1 receptor (Rattus norvegicus, UniProt P18901); assay: Radioligand competition assay, affinity at rat D1 receptors ([3H]SCH23390); type: binding; settings: radioligand [3H]SCH23390
dopamine D2 receptor = dopamine D2 receptor (Rattus norvegicus, UniProt P61169); assay: Radioligand competition assay, affinity at rat D2 receptors ([3H]nemonapride); type: binding
[1] = following a single dose; cited from earlier work

Chain of dopamine D2 receptor (P61169 whole entry): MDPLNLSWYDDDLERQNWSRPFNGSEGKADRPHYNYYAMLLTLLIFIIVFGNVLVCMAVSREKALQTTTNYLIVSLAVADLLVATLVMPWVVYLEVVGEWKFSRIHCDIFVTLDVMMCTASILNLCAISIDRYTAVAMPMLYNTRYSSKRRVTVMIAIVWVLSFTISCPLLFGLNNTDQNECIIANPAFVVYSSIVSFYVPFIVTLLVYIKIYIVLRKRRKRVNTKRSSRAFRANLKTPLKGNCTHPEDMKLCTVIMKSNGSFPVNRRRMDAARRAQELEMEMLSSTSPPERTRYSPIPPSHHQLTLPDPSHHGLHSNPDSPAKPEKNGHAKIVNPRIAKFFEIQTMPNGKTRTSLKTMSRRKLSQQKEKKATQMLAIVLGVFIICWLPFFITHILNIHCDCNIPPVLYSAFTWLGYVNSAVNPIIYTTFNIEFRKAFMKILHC
Chain of dopamine D1 receptor (P18901 whole entry): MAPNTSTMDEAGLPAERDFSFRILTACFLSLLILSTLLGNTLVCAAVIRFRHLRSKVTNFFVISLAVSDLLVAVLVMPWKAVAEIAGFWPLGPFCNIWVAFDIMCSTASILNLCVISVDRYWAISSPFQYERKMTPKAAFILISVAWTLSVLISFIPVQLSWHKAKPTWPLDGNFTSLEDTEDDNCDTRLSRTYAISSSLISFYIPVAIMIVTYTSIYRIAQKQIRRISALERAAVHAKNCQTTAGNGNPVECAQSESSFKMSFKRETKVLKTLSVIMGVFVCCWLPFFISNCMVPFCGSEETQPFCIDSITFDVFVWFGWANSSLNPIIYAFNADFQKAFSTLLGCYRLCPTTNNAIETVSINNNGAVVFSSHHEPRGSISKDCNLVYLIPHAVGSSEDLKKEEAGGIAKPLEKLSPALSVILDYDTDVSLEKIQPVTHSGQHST

## CCCN1CCc2cc(OC)cc3c2[C@H]1Cc1ccc(O)c(O)c1-3 [Compound 1c, R(−)-2-methoxy-N-n-propylnorapomorphine]
D2 receptor
  D2 receptor affinity and selectivity (in words): among the most potent and highly selective agonists for the D2 receptor

## CCCN1CCc2cc(O)cc3c2[C@H]1Cc1ccc(O)c(O)c1-3 [R(−)-2-OH-NPA, R(−)-2-hydroxy-N-n-propylnorapomorphine]
D2 receptor
  D2 receptor affinity and selectivity (in words): among the most potent and highly selective agonists for the D2 receptor

## CCCN1CCc2cccc3c2[C@H]1Cc1cccc(O)c1-3 [Compound 2, R(−)-11-hydroxy-N-n-propylnoraporphine]
D2 receptor
  D2 receptor affinity and selectivity (in words): even higher affinity and selectivity for D2 receptor than apomorphine

## COc1cc2c3c(c1)-c1c(O)cccc1CC3N(C)CC2 (stereo not drawn) [Compound 3, 2-Methoxy-11-hydroxyaporphine]
Dopamine D1 receptor
  Ki: 0.046 ± 0.0028 µM
Dopamine D2 receptor; rat receptors, radioligand [3H]nemonapride, read-out: Affinity at rat receptors, D2
  Ki: 235 ± 32 nM

## COc1cc2c3c(c1)-c1c(ccc(O)c1O)C[C@H]3N(C)CC2 [Compound 8]
Dopamine D1 receptor
  Ki: 6.45 µM
Dopamine D2 receptor
  Ki: 1.3 ± 0.4 nM

## CN1CCc2cccc3c2[C@H]1Cc1ccc(O)c(O)c1-3 [apomorphine, R(−)-Apomorphine]
[1]
  duration of effects: 40 to 60 min
  onset of action: 5 to 15 min
